Measurements published in patent US11767298B2, “Substituted benzimidazoles as inhibitors of transforming growth factor-β kinase” (Duke University, priority 2016, dated 2023).
“Also recorded” adds a separate entry of the source.

How the values were obtained:
60 cell lines (NCI-60) = test: NCI-60 Cell One-Dose Screen; assay type: cell-based; conditions: 10 μM, 24 h
Protocol: In order to examine the effect of HS-206 on cell viability of different cancers, a screen of 60 cell lines was performed at the NCI, called the NCI-60 Cell One-Dose Screen. […] This screen determined growth inhibition as an effect of HS-206 treatment over a period of 24 h.

TAK1 = TAK1 (Homo sapiens, UniProt O43318); test: Kinase profiling (Dundee), TAK1; assay type: biochemical
Protocol: (§1) Kinase selectivity profiling. The selectivity profile of HS-206 to inhibit mammalian kinases was tested against a panel of 140 kinases at a single concentration of 10 μM. Tests were performed using a radiolabeld (^33P-ATP) filter-binding assay at the International Centre for Kinase Profiling at the University of Dundee, UK (http://www.kinase-screen.mrc.ac.uk/).
(§2) This panel contains members of all major kinase families, including tyrosine kinases (TK), tyrosine kinase-like (TKL), sterile serine/threonine (STE), and CDK/MAPK/GSK/CLK (CMGC). […] For these kinases, IC50 values were determined (Table 1).

MDA-MB-231 = test: Viability and proliferation assays on breast cancer cell lines; assay type: cell-based; conditions: 48 h and 72 h
GCK = GCK (Homo sapiens, UniProt Q12851); test: Kinase profiling (Dundee), GCK; assay type: biochemical; conditions: 10 μM
Protocol: as §1, §2

panel of 140 kinases = test: Kinase selectivity profiling, 33P-ATP filter-binding assay (Dundee); assay type: biochemical; conditions: of the 140 kinases, 10 μM
Protocol: as §1, §2

GFP-PfPK9 = GFP-PfPK9 (Plasmodium falciparum, UniProt Q8IEG4); test: ATP-competitive binding assay (ATP-sepharose pull-down, FLECS); conditions: GFP-PfPK9; Kd calculated from EC50 of ATP pull-down dose-response; read-out: Kd, app
Protocol: Primary small-molecule screen. A small-molecule screen was performed similar to a previously reported fluorescence linked enzyme chemoproteomic strategy (FLECS). Briefly, HEK293-GFP-PfPK9 cells were grown in 182-cm^2 tissue culture flasks (Genesee Scientific) and harvested at ˜80% cell confluency. Before assays the culture medium was aspirated, cells were rinsed with ice cold PBS and then they were removed with a cell scraper. Cells were pelleted by centrifugation (2,000 rpm, 4° C., 2 min) and immediately lysed for assays. The pellet was suspended in buffer A (25 mM HEPES, pH 7.4, 150 mM NaCl, 60 mM MgCl2, 1 mM DTT) with 1 μM microcystin, 0.1% Triton X-100 plus a Roche Complete protease inhibitor tablet and then placed on ice for 30 min to facilitate lysis. The supernatant was collected after centrifugation (4,300 rpm, 4° C., 5 min) and used in subsequent screening and titrations experiments. For screening, the supernatant was added to ATP-sepharose beads (1:1) and incubated with agitation at 4° C. for at least 1 hr to allow binding. Following this incubation, the mixture was centrifuged, the ATP resin was washed with 9 column volumes of buffer A with 1 M NaCl and then 9 column volumes of buffer A. The ATP-sepharose medium was reconstituted as a 1:1 slurry with buffer A and then added to 96-well filter plates (50 μL/well) (Corning #3505) using a multichannel pipette (Rainin). The filter plate was on top of black 96-well catch plates (Corning #3915). An ATP dilution series (1-200 mM) was added to each plate as a positive control and DMSO was the negative control. Compounds and controls were all added to 50 μL per well in buffer A. For screening, compounds were tested in singlicate at 500 μM. The final DMSO concentration in every well was 5%. The fluorescence intensity in each well was measured on an EnVision system. Data analyses of screens were carried out in EXCEL (Microsoft, Corp.) and actives were identified as 2×background signal.
All screening positives that were verified with Western blot analysis were purchased from Enamine or Vitas-M laboratory. The purity of compounds 1-5 (shown below) was verified by high-resolution MS (Agilent). Compounds were tested in 8-point dose-response (0-500 μM) experiments in duplicate, essential as described above. The fluorescence intensity in each well was measured using an EnVision system. Dose-response analysis was performed with GraphPad Prism to acquire EC50 values. Determined EC50 values were used to calculate the observed PfPK9 Kd and reported values are the average of 2-3 independent experiments.
Stable cell line generation. The P. falciparum PK9 gene (PlasmoDB accession #PF3D7_1315100) was cloned into the pEGFP-C1 mammalian expression vector (Clontech) in frame with a […] GFP tag. For screening, HEK293 cells were transfected with the resulting PfPK9-pEGFP-C1 vector to generate HEK293-GFP-PfPK9 expressing cells using X-tremeGENE HP transfection reagent (Roche) per the manufacturer instructions. Briefly, the culture medium was replaced at 48 hours post-transfection with medium supplemented with 1 mg/mL G418 sulfate (Life Technologies) to select for stably transfected cells. Following stable cell selection, fluorescence activated cell sorting (FACS) was used to enrich for GFP-PfPK9 expressing cells. Subsequently, FACS sorted HEK293-GFP-PfPK9 cells were cultured with medium supplemented with 0.5 mg/mL G418 sulfate for all following experiments. Protein expression was verified by Western blot analysis probing for anti-GFP and by fluorescence intensity using an EnVision (PerkinElmer) system.
All 14 positive molecules were also tested for their binding affinity to PfPK9 using an optimized ATP-competitive binding assay. EC50 values ranging from low μM to low mM were observed and these EC50 values were used to derive dissociation constants as described previously. […]

Sequence of TAK1 (O43318 with tags, fused parts or gaps limits assumed): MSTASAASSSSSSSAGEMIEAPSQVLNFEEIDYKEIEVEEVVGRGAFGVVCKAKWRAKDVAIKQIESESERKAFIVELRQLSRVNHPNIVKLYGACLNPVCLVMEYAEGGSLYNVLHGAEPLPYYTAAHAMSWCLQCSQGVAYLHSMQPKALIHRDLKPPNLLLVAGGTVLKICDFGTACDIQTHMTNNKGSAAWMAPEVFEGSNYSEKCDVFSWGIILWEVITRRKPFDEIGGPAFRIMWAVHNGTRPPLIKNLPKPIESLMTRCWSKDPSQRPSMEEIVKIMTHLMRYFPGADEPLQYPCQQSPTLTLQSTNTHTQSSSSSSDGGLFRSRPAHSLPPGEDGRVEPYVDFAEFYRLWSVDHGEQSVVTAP
Sequence of GFP-PfPK9 (Q8IEG4 entry or part of it): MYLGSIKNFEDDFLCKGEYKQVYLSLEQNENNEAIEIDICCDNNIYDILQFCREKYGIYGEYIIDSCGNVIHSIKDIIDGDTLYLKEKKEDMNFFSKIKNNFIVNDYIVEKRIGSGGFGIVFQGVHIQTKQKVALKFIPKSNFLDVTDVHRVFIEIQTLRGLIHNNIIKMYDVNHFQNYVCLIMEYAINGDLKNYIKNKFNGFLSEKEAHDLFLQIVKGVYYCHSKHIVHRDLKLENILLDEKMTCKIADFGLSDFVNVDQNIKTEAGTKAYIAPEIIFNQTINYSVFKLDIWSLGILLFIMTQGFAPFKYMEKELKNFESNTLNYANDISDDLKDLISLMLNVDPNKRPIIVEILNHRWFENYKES
Sequence of GCK (Q12851 whole entry): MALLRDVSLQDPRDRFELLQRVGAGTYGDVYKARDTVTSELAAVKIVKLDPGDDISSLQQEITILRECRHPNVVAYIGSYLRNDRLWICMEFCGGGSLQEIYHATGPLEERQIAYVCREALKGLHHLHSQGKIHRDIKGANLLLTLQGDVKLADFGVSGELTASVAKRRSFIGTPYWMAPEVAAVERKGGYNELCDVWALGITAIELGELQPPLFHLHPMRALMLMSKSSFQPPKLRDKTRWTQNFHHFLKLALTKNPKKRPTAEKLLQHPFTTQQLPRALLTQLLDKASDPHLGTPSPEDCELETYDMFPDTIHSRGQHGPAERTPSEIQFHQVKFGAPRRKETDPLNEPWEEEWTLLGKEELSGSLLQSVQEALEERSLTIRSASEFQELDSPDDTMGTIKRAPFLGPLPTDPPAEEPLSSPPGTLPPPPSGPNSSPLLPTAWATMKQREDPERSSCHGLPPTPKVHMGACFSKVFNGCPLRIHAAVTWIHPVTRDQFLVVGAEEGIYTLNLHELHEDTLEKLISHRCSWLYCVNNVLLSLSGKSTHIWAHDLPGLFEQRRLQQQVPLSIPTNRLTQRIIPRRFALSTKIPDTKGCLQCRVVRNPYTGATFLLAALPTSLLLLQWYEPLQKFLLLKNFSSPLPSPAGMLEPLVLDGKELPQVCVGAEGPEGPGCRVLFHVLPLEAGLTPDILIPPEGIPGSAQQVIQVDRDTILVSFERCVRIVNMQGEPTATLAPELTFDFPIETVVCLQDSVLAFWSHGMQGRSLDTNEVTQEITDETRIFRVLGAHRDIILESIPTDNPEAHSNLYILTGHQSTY

`CCCn1c(NC(=O)c2cccc(C(N)=O)c2)nc2ccccc21` [HS-206 (1), (E)-N-(1-Propyl-1,3-dihydro-2H-benzo[d]imidazol-2-ylidene)isophthalamide] was tested. Which “growth inhibition, one-dose screen” value (60 cell lines (NCI-60); colorectal (KM12), leukemia (HL-60), non-small cell lung cancer (NCI-H522)) did it give?
The value was “most affected”.

What about the “growth inhibition, one-dose screen” value (60 cell lines (NCI-60); melanoma (M14), renal (786-0), ovarian cancer (Ovcar-3)) of the same compound?
Its value is “little effect”.

What about the IC50 (TAK1) of the same compound?
The IC50 was 9.5 ± 2 nM.

What about the inhibition at 10 µM (TAK1; 10 μM) of the same compound?
The inhibition at 10 µM was greater than 90%.

And the cell proliferation (MDA-MB-231)?
Its cell proliferation is “significant reduction in cell proliferation; also recorded: inhibits cell proliferation in a dose-dependent manner”.

What about the inhibition at 10 µM (GCK) of the same compound?
Its inhibition at 10 µM is greater than 90%.

What about the “number of kinases with ≥80% inhibition” value (panel of 140 kinases) of the same compound?
Its value is 11.

And the Kd (GFP-PfPK9)?
Its Kd is 200 nM.
